Source: patent publication US20140243286A1, “BROMODOMAIN LIGANDS CAPABLE OF DIMERIZING IN AN AQUEOUS SOLUTION, AND METHODS OF USING SAME” (Coferon, Inc., priority 2011, published 2014)
Where two headings read alike, the source gives them in different places. One block for each compound: values may come before it.

Tests used:
bromodomain = experiment: TR-FRET assay; format: binding; details: BRD-S monomers; based on monomer concentration; read-out: IC50 range (based on monomer concentration), Group (FRET assay)
Method: TR-FRET assays were performed as described in Chung et al, J. Med Chem., 2011 54(11): 3827-38 except that FRET was measured on a Spectramax M5 plate reader.

BRD2 = BRD2 (Homo sapiens, UniProt P25440); experiment: Fluorescence anisotropy (FA) binding assay, BRD2
Method: (§1) Fluorescence Anisotropy (FA) Binding Assays.
(§2) FA assays were performed as described in Chung et al., J. Med Chem., 2011 54(11): 3827-38 except that protein concentrations were 125 nM and plates were read on a Spectramax M5 plate reader.

BRD3 = BRD3 (Homo sapiens, UniProt Q15059); experiment: Fluorescence anisotropy (FA) binding assay, BRD3
Method: as §1, §2

BRD4 = BRD4 (Homo sapiens, UniProt O60885); experiment: Fluorescence anisotropy (FA) binding assay, BRD4
Method: as §1, §2

[1] = BRD2, protein 125 nM, read-out: IC50 range (FA assay) BRD2, BRD-N monomers
[2] = BRD3, protein 125 nM, read-out: IC50 range (FA assay) BRD3, BRD-N monomers
[3] = BRD4, protein 125 nM, read-out: IC50 range (FA assay) BRD4, BRD-N monomers
[4] = BRD2, protein 125 nM, read-out: IC50 range (FA assay) BRD2, BRD-E monomers
[5] = BRD3, protein 125 nM, read-out: IC50 range (FA assay) BRD3, BRD-E monomers
[6] = BRD4, protein 125 nM, read-out: IC50 range (FA assay) BRD4, BRD-E monomers

Chain of BRD3 (Q15059 whole entry): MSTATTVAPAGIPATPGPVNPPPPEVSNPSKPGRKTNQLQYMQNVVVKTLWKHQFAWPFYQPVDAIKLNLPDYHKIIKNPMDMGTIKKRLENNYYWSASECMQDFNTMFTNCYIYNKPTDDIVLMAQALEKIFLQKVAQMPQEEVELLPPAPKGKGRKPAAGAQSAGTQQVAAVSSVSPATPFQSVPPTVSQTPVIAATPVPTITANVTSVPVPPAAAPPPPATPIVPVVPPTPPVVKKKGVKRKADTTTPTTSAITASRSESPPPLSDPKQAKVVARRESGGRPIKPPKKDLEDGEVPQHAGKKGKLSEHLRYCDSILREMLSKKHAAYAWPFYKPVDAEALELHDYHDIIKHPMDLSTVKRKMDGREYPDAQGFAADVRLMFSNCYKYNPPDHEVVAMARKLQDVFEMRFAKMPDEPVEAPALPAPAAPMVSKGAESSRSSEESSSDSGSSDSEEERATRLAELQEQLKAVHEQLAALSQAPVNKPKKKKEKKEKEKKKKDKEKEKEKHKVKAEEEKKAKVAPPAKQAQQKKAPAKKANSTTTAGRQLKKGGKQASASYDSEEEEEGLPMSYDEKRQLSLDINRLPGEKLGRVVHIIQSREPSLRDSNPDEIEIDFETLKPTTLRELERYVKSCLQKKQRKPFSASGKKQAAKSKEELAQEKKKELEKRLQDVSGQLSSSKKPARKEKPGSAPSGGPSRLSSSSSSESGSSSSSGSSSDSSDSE
Chain of BRD2 (P25440 whole entry): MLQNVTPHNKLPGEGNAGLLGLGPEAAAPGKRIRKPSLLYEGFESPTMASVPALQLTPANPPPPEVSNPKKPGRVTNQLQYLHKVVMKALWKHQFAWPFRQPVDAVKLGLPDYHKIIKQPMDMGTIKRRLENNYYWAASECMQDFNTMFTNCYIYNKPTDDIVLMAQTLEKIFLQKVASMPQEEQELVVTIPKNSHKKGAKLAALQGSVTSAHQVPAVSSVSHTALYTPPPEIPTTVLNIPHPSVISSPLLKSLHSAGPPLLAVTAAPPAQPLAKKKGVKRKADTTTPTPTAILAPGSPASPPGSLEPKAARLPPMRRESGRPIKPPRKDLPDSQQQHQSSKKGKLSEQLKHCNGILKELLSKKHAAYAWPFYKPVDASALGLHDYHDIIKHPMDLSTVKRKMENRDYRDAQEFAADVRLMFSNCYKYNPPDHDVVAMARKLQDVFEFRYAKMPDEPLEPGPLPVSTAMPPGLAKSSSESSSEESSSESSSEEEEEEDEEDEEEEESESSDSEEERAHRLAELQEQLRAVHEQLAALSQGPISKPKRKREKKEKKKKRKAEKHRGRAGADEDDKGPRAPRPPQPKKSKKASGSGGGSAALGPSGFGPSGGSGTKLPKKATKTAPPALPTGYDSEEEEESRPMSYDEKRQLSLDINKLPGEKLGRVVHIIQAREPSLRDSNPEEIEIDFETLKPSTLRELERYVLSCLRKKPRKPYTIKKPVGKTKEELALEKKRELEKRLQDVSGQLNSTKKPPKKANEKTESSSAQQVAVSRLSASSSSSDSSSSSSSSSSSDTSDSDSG

SMILES: COc1ccc2c(c1)C(c1ccc(Cl)cc1)=N[C@@H](CC(=O)NCCOc1cccc([Si](C)(C)O)c1)c1nnc(C)n1-2 [BRD-S-10, (S)-2-(6-(4-chlorophenyl)-8-methoxy-1-methyl-4H-benzo[f][1,2,4]triazolo[4,3-a][1,4]diazepin-4-yl)-N-(2-(3-(hydroxydimethylsilyl)phenoxy)ethyl)acetamide]
IC50 (bromodomain): 0.1 to 0.3 µM

melting point: 180 to 182 °C
SMILES: CCNC(=O)C[C@@H]1N=C(c2ccc(Cl)cc2)c2cc(O)ccc2-n2c(C)nnc21

SMILES: COc1ccc2c(c1)C(c1ccc(Cl)cc1)=N[C@@H](CC(=O)NCCCNC(=O)c1ccc(O)c(O)c1)c1nnc(C)n1-2 [BRD-N-03, N-(3-(2-((4S)-6-(4-chlorophenyl)-8-methoxy-1-methyl-4H-benzo[f][1,2,4]triazolo[4,3-a][1,4]diazepin-4-yl)acetamido)propyl)-3,4-dihydroxybenzamide]
IC50 (BRD2; [1]): 0.05 to 1 µM
IC50 (BRD3; [2]): 0.05 to 1 µM
IC50 (BRD4; [3]): 0.05 to 1 µM

SMILES: CCNC(=O)C[C@@H]1N=C(c2ccc(Cl)cc2)c2cc(OCCCCC(=O)Nc3cccc(O)c3O)ccc2-n2c(C)nnc21 [BRD-N-23, (S)-5-((6-(4-chlorophenyl)-4-(2-(ethylamino)-2-oxoethyl)-1-methyl-4H-benzo[f][1,2,4]triazolo[4,3-a][1,4]diazepin-8-yl)oxy)-N-(2,3-dihydroxyphenyl)pentanamide]
IC50 (BRD2): 0.05 to 1 µM
IC50 (BRD3): 0.05 to 1 µM
IC50 (BRD4): 0.05 to 1 µM

SMILES: COc1ccc2c(c1)C(c1ccc(Cl)cc1)=N[C@@H](CC(=O)NCCNC(=O)c1cccc(B(O)O)c1)c1nnc(C)n1-2 [BRD-E-02, (3-((2-(2-((4S)-6-(4-chlorophenyl)-8-methoxy-1-methyl-4H-benzo[f][1,2,4]triazolo[4,3-a][1,4]diazepin-4-yl)acetamido)ethyl)carbamoyl)phenyl)boronic acid]
IC50 (BRD2): 0.05 to 1 µM
IC50 (BRD3): 0.05 to 1 µM
IC50 (BRD4): 0.05 to 1 µM

SMILES: COc1ccc2c(c1)C(c1ccc(Cl)cc1)=N[C@@H](CC(=O)NCCNC(=O)c1cccc(-c3cccc(B(O)O)c3)c1)c1nnc(C)n1-2 [BRD-E-31, (3′-((2-(2-((4S)-6-(4-chlorophenyl)-8-methoxy-1-methyl-4H-benzo[f][1,2,4]triazolo[4,3-a][1,4]diazepin-4-yl)acetamido)ethyl)carbamoyl)-[1,1′-biphenyl]-3-yl)boronic acid]
IC50 (BRD2; [4]): 0.05 to 1 µM
IC50 (BRD3; [5]): 0.05 to 1 µM
IC50 (BRD4; [6]): 0.05 to 1 µM

SMILES: COc1ccc2c(c1)C(c1ccc(Cl)cc1)=N[C@@H](CC(=O)NCCCCCNC(=O)c1cccc(B(O)O)c1)c1nnc(C)n1-2 [BRD-E-08, (3-((5-(2-((4S)-6-(4-chlorophenyl)-8-methoxy-1-methyl-4H-benzo[f][1,2,4]triazolo[4,3-a][1,4]diazepin-4-yl)acetamido)pentyl)carbamoyl)phenyl)-boronic acid]
IC50 (BRD2; [4]): 0.05 to 1 µM
IC50 (BRD3; [5]): 0.05 to 1 µM
IC50 (BRD4; [6]): 0.05 to 1 µM

SMILES: CCNC(=O)C[C@@H]1N=C(c2ccc(Cl)cc2)c2cc(OCCCCNC(=O)c3ccc(O)c(O)c3)ccc2-n2c(C)nnc21 [BRD-N-28, (S)—N-(4-((6-(4-chlorophenyl)-4-(2-(ethylamino)-2-oxoethyl)-1-methyl-4H-benzo[f][1,2,4]triazolo[4,3-a][1,4]diazepin-8-yl)oxy)butyl)-3,4-dihydroxybenzamide]
IC50 (BRD2; [1]): 1 to 30 µM
IC50 (BRD3; [2]): 0.05 to 1 µM
IC50 (BRD4; [3]): 1 to 30 µM

SMILES: COc1ccc2c(c1)C(c1ccc(Cl)cc1)=N[C@@H](CC(=O)NCCNC(=O)/C=C/c1ccc(B(O)O)cc1)c1nnc(C)n1-2 [BRD-E-29, (4-((E)-3-((2-(2-((4S)-6-(4-chlorophenyl)-8-methoxy-1-methyl-4H-benzo[f][1,2,4]triazolo[4,3-a][1,4]diazepin-4-yl)acetamido)ethyl)amino)-3-oxoprop-1-en-1-yl)phenyl)boronic acid]
IC50 (BRD2; [4]): 0.05 to 1 µM
IC50 (BRD3; [5]): 0.05 to 1 µM
IC50 (BRD4; [6]): 0.05 to 1 µM
